Data from EP0287830A1, “Alkanoic acid alkyl esters, method for their production and the application of aqueous emulsions of these esters in vaccines” (priority 1987, dated 1988).

How the values were obtained:
[1] = Tolerability of emulsions in guinea pig test model; assay type: in vivo, Meerschweinchen; details: Meerschweinchentestmodell
[2] = Immunostimulatory and adjuvant effect in mouse test model; assay type: in vivo, Mäuse; details: as component of an oil-in-water emulsion, Mäusetestmodell

## Hexansäurehexylester [Verbindung 2]
[1]
  Verträglichkeit der Emulsionen: sehr gut verträglich
[2]
  immunstimulatorische und adjuvante Wirkung: immunstimulatorische und adjuvante Wirkung
